Reference: publication PMC1262763, “Evolutionary selection across the nuclear hormone receptor superfamily with a focus on the NR1I subfamily (vitamin D, pregnane X, and constitutive androstane receptors)” (Nuclear Receptor, 2005)
Structures can show the parent of a compound that is named as a salt.

What was measured:
human VDR = human VDR (Homo sapiens, UniProt P11473); settings: maximal activator […] calcitriol
human PXR = biological target: T1, human PXR (Homo sapiens, UniProt O75469); experiment: luciferase reporter transactivation, HepG2-NTCP cells; type: cell-based; settings: concentration-response curve, normalized to […] rifampicin
T1 construct: gene NR1I2; full-length receptor (DBD and LBD), transfected in HepG2-NTCP cells with CYP3A4-PXRE-Luc reporter
T1 sequence (O75469 1-434): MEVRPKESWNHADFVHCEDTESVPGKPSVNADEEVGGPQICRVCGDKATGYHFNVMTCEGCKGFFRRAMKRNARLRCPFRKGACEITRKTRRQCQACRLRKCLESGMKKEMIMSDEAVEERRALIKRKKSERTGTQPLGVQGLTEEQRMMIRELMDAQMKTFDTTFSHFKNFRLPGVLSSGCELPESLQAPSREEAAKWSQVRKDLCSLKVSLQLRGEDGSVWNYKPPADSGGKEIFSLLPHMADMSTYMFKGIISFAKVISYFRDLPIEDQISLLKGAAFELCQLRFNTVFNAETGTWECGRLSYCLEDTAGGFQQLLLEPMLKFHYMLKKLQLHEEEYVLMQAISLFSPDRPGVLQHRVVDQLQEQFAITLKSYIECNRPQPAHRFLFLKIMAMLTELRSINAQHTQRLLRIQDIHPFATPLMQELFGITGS

Xenopus laevis BXRα = biological target: T2, Xenopus laevis BXRα (Xenopus laevis, UniProt Q91839); experiment: GAL4-LBD luciferase reporter transactivation, HepG2-NTCP cells; type: cell-based; settings: concentration-response curve; normalized to […] n-butyl-p-aminobenzoate
T2 construct: gene nr1i2.L; LBD only, fused to GAL4 (tk-UAS-Luc reporter), transfected in HepG2-NTCP cells
T2 sequence (Q91839 141-386 limits assumed): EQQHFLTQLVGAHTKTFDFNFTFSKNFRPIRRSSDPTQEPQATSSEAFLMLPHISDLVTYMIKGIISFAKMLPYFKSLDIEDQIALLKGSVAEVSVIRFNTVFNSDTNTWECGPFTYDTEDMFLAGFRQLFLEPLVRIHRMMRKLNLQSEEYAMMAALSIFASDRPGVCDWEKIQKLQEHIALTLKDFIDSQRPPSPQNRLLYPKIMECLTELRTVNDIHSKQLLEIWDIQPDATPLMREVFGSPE

zebrafish PXR = biological target: T3, zebrafish PXR (Danio rerio, UniProt A5WYG8); experiment: as above; type: cell-based; settings: concentration-response curve; normalized to […]α-androstan-3α-ol
T3 construct: gene nr1i2; LBD only, fused to GAL4 (tk-UAS-Luc reporter), transfected in HepG2-NTCP cells
T3 sequence (A5WYG8 144-430 limits assumed): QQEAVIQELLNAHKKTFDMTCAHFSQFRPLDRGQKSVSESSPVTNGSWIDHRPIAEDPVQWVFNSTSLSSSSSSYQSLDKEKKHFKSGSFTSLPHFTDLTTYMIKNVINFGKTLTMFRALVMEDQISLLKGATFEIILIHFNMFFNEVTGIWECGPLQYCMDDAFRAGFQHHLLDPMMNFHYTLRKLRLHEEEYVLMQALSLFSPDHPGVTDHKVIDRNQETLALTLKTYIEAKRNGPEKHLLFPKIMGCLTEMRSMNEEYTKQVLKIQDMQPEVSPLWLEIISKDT

Sequence of human VDR (P11473 whole entry): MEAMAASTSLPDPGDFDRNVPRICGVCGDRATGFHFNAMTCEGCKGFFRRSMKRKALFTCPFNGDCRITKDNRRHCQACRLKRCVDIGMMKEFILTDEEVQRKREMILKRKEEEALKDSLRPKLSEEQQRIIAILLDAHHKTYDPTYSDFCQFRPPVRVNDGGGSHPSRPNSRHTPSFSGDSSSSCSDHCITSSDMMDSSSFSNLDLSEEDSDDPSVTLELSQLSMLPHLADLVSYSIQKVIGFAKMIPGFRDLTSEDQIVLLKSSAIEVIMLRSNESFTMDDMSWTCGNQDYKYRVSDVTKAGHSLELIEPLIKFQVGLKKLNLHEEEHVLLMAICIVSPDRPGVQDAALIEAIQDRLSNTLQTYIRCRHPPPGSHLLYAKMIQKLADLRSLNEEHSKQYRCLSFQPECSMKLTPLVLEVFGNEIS

| Compound | efficacy relative to calcitriol (human VDR) [%] | luciferase reporter transactivation, HepG2-NTCP cells (human PXR) | GAL4-LBD luciferase reporter transactivation, HepG2-NTCP cells (Xenopus laevis BXRα) | GAL4-LBD luciferase reporter transactivation, HepG2-NTCP cells (zebrafish PXR) | luciferase reporter transactivation, HepG2-NTCP cells (human PXR; OATP co-transfected) |
| --- | --- | --- | --- | --- | --- |
| C[C@H](CCC(=O)O)[C@H]1CC[C@H]2[C@@H]3CC[C@@H]4CC(=O)CC[C@]4(C)[C@H]3CC[C@]12C [3-ketolithocholic acid] | 15 | the early bile salts petromyzonol sulfate and scymnol sulfate, 3-ketolithocholic acid, and the benzoate analog | – | – | – |
| CCCOC(=O)c1ccc(O)cc1 [n-propyl-p-hydroxybenzoate] | – | the early bile salts petromyzonol sulfate and scymnol sulfate, 3-ketolithocholic acid, and the benzoate analog | n-propyl-p-hydroxybenzoate, which activates BXRα and BXRβ robustly | zebrafish PXR is activated by pregnenolone, scymnol sulfate, and the benzoate analog | – |
| C[C@H](CCCOS(=O)(=O)O)[C@H]1CC[C@H]2[C@@H]3[C@H](O)C[C@H]4C[C@H](O)CC[C@]4(C)[C@H]3C[C@H](O)[C@]12C [petromyzonol sulfate] | – | – | – | – | the early bile salts petromyzonol sulfate and scymnol sulfate, 3-ketolithocholic acid, and the benzoate analog |
| CC(=O)[C@H]1CC[C@H]2[C@@H]3CC=C4C[C@@H](O)CC[C@]4(C)[C@H]3CC[C@]12C [pregnenolone] | – | Human PXR is activated by micromolar concentrations of the steroid pregenonolone | – | zebrafish PXR is activated by pregnenolone, scymnol sulfate, and the benzoate analog | – |
